These results are taken from patent US8815776B2, “Herbicidal compositions and method of use thereof” (Proactive, LLC, priority 2011, dated 2014).

Each structure is given as a SMILES string.

The data set is described as follows: Solubility of prodiamine in solvents. In kind it is physicochemical. The source says:
The aprotic solvent is preferably a pyrrolidone such as NMP, though one or more of dimethylsulfoxide (DMSO), dimethylformamide, and gamma-Butyrolactone alone or in mixtures, including mixtures with NMP, are useful. DMSO and gamma-Butyrolactone dissolve 0.24 to 0.25 grams prodiamine per gram solvent. NMP dissolves 0.68 grams prodiamine per gram solvent. The aprotic solvent is the primary solvent in most embodiments of the EC.
There are a number of solvents that are not suitable and would be included only to change the composition.
Fatty amides, also called “fatty acid solvents” in this application, are amides formed from a fatty acid and an amine, of which many are known. Preferred are di-substituted fatty acid amides, which include as non-limiting examples N,N-dimethylcaprylamide (available from Cognis as Agnique™ KE-3658), and […] (available as Halcomid™ M8-10). These compounds can fully or partially replace aprotic solvents, and the solvating capacity approaches that of less-preferred aprotic solvents such as DMSO and gamma-Butyrolactone, that is, 0.24 to 0.25 grams prodiamine per gram solvent. A mixture of C8 and C10 fatty acid dimethylamide, (CAS 1118-92-9 and 14433-76-2) are useful.

`CCCN(CCC)c1c([N+](=O)[O-])cc(C(F)(F)F)c(N)c1[N+](=O)[O-]` [prodiamine, N3,N3-di-n-propyl-2,4-dinitro-6-(trifluoromethyl)-m-phenylenediamine]: the “Solubility, g prodiamine/g solvent” value (solvent Aromatic 150 (Aromatic Hydrocarbon)) came to 0.080 g prodiamine/g solvent; the “Solubility, g prodiamine/g solvent” value (solvent Aromatic 200 (Aromatic Hydrocarbon)) was found to be 0.070 g prodiamine/g solvent; the “Solubility, g prodiamine/g solvent” value (solvent Carbitol TM (Diethylene glycol monomethyl ether)) came to 0.010 g prodiamine/g solvent; the “Solubility, g prodiamine/g solvent” value (solvent DEGEE (Diethylene glycol monoethyl ether)) came to 0.050 g prodiamine/g solvent; the “Solubility, g prodiamine/g solvent” value (solvent Glycol DPM (Dipropylene glycol methyl ether)) is 0.008 g prodiamine/g solvent; the “Solubility, g prodiamine/g solvent” value (solvent Glycol Ether EB (Diethylene glycol monobutyl ether)) turned out to be 0.020 g prodiamine/g solvent. In addition, the “Solubility, g prodiamine/g solvent” value (solvent Jefsol 1555 (Proprietary Solvent (Carbonate))) is given as 0.004 g prodiamine/g solvent. The “prodiamine dissolved per gram solvent” value (solvent NMP) is 0.68 grams prodiamine per gram solvent.
